In patent US8633207B2, “Quinazoline compounds and methods of use thereof” (Ambit Biosciences Corporation, priority 2010, dated 2014):
pIC50, pKd: −log10 of the molar value.

How the values were obtained:
[1] = tested on: GM-CSFR/JAK2/STAT5 pathway; assay: csTF-1 cell-based reporter assay; conditions: Homo sapiens; csTF-1 cells, GM-CSF at 2 ng/mL, 4 hours; read-out: Cell Assay: CS TF-1 reporter assay IC50
Protocol: csTF-1 Cell-Based Reporter Assay
csTF-1 cells are derived from the human erythroleukemia cell line that is growth dependent on GM-CSF and has an intact GM-CSFR/JAK2/STAT5 pathway. The cell line contains stably integrated beta-lactamase reporter gene under the control of the […] (irf 1) response element recognized by the activated transcription factor STATS. csTF-1 cells (Invitrogen K1219) were washed with assay media (97% OPTIMEM/0.5% dialyzed FBS/0.1 mM NEAA/1 mM Na pyr/P/S) and seeded in the same media at 5×10^5 cell/mL in T150 flask. After 16 hour incubation, cells were seeded at 2×10^5 cell/well in 50 μl volume, into Costar, clear bottom, 96-well assay plates. Serial dilutions of compounds were added to the plates with final DMSO concentration at 0.5% and GM-CSF at 2 ng/mL and the plates were then incubated at […] and 5% CO2 for 4 hours. The plates were brought to room temperature before adding Substrate Mixture according to manufacturer's protocol (Invitrogen, Catalog #K1085). The assay plates containing the substrate mixture were incubated in the dark at room temperature for 2 hours. Blue and green fluorescence was measured with excitation at 409 nm and emission at 460 nm (for blue) and excitation at 409 nm and emission at 530 nm (for green) using Spectra Max Gemini EM.

JAK2 = biological target: T1, JAK2 (Homo sapiens, UniProt O60674); assay: Competition binding assay to determine Kd against JAK kinases: JAK2
T1 construct: made in house; host or cells: T7 phage display, or HEK-293 cells (alternative)
T1 sequence (O60674 whole entry): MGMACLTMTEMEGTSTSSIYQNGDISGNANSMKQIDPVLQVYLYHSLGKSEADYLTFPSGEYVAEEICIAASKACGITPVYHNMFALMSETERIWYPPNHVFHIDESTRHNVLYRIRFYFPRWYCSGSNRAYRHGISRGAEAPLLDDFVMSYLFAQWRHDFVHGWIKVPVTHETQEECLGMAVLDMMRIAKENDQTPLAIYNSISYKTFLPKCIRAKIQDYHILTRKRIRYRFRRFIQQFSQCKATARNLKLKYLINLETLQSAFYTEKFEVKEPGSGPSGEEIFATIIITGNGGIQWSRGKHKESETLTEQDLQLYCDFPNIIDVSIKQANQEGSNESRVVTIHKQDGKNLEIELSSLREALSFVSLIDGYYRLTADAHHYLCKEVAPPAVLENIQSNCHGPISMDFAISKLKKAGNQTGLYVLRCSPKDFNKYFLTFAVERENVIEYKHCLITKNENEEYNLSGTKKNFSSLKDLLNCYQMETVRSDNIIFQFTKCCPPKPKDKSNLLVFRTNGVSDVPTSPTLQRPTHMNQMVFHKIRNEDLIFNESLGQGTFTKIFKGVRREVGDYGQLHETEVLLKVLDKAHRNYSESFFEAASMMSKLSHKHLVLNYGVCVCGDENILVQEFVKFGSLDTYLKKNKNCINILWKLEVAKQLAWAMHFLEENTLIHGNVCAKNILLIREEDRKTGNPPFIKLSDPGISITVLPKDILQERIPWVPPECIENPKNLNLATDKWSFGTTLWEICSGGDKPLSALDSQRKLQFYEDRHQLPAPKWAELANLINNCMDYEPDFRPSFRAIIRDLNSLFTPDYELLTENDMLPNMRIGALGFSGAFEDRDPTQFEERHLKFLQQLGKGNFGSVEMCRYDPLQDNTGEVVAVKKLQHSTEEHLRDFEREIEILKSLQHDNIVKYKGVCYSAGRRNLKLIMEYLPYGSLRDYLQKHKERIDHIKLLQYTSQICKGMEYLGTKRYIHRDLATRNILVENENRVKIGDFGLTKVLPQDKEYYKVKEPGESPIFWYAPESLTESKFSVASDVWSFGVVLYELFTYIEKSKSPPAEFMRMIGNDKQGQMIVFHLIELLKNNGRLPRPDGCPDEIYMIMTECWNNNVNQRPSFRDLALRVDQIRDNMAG
Description: (§1) Competition Binding Assay to Determine Binding Constants (Kd) of the Compounds Against JAK Kinases
(§2) Competition binding assays used herein were developed, validated and performed as described in Fabian et al., Nature Biotechnology 2005, 23, 329-336. Kinases were produced as fusions to T7 phage (See, Fabian et al. or WO04/015142) or alternatively, the kinases were expressed in HEK-293 cells and subsequently tagged with DNA for PCR detection (See, WO08/005,310). For the binding assays, streptavidin-coated magnetic beads were treated with biotinylated affinity ligands for 30 min at rt to generate affinity resins. The liganded beads were blocked with excess biotin and washed with blocking buffer (SeaBlock (Pierce), 1% BSA, 0.05% Tween 20, 1 mM DTT) to remove unbound ligand and to reduce non-specific binding. Binding reactions were assembled by combining kinase, liganded affinity beads, and test compounds in 1× binding buffer (20% SeaBlock, 0.17×PBS, 0.05% Tween 20, 6 mM DTT). Test compounds were prepared as 100× stocks in DMSO and rapidly diluted into the aqueous environment. DMSO was added to control assays lacking a test compound. Primary screen interactions were performed in polypropylene 384-well plates in a final volume of 34 μL, while Kd determinations were performed in polystyrene 96-well plates in a final volume of 135 μL. The assay plates were incubated at room temperature with shaking for 1 hour, long enough for binding reactions to reach equilibrium, and the affinity beads were washed extensively with wash buffer (1×PBS, 0.05% Tween 20) to remove unbound protein. The beads were then resuspended in elution buffer (1×PBS, 0.05% Tween 20, 2 μM non-biotinylated affinity ligand) and incubated at room temperature with shaking for 30 min. The kinase concentration in the eluates was measured by quantitative PCR. Each kinase was tested individually against each compound. Kds were determined using eleven serial threefold dilutions. A selectivity score, which is a quantitative measure of selectivity of a compound against a panel of enzymes, may be calculated for a compound by dividing the number of enzymes for which a compound meets a set criteria, (for example, a binding constant of 100 nM or less), by the total number of enzymes tested.

JAK3 = biological target: T2, JAK3 (Homo sapiens, UniProt P52333); assay: Competition binding assay to determine Kd against JAK kinases: JAK3
T2 construct: made in house; host or cells: T7 phage display, or HEK-293 cells (alternative)
T2 sequence (P52333 1-1124): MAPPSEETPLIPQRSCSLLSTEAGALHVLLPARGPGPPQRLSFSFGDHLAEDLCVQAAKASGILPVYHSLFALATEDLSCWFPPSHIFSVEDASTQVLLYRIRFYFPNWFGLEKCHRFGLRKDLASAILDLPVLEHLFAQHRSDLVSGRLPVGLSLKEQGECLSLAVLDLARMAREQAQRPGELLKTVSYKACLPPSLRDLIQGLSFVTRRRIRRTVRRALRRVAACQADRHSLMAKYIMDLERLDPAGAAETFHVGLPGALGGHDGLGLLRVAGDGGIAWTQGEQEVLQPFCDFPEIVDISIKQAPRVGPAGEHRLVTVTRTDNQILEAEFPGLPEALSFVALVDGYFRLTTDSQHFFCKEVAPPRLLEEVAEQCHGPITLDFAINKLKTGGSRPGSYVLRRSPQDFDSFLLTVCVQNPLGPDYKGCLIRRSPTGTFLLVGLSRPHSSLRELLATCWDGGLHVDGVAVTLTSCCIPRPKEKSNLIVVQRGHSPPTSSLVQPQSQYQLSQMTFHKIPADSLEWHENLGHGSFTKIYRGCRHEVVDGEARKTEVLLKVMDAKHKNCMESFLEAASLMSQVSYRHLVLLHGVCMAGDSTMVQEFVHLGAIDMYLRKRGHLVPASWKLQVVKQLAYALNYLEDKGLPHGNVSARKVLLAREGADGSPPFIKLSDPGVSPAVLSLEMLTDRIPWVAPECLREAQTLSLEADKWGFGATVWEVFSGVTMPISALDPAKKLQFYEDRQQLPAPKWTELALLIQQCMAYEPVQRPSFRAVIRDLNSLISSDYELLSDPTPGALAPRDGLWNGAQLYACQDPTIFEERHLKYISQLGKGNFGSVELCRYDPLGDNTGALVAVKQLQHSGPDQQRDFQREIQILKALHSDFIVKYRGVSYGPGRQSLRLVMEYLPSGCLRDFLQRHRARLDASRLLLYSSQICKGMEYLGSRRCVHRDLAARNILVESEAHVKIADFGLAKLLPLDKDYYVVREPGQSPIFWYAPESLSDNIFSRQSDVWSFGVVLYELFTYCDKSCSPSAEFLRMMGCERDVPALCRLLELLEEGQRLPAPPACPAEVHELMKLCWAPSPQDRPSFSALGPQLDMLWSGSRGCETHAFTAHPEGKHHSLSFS
Description: as §1, §2

Tyk2 = biological target: T3, Tyk2 (Homo sapiens, UniProt P29597); assay: Competition binding assay to determine Kd against JAK kinases: Tyk2
T3 construct: made in house; host or cells: T7 phage display, or HEK-293 cells (alternative)
T3 sequence (P29597 whole entry): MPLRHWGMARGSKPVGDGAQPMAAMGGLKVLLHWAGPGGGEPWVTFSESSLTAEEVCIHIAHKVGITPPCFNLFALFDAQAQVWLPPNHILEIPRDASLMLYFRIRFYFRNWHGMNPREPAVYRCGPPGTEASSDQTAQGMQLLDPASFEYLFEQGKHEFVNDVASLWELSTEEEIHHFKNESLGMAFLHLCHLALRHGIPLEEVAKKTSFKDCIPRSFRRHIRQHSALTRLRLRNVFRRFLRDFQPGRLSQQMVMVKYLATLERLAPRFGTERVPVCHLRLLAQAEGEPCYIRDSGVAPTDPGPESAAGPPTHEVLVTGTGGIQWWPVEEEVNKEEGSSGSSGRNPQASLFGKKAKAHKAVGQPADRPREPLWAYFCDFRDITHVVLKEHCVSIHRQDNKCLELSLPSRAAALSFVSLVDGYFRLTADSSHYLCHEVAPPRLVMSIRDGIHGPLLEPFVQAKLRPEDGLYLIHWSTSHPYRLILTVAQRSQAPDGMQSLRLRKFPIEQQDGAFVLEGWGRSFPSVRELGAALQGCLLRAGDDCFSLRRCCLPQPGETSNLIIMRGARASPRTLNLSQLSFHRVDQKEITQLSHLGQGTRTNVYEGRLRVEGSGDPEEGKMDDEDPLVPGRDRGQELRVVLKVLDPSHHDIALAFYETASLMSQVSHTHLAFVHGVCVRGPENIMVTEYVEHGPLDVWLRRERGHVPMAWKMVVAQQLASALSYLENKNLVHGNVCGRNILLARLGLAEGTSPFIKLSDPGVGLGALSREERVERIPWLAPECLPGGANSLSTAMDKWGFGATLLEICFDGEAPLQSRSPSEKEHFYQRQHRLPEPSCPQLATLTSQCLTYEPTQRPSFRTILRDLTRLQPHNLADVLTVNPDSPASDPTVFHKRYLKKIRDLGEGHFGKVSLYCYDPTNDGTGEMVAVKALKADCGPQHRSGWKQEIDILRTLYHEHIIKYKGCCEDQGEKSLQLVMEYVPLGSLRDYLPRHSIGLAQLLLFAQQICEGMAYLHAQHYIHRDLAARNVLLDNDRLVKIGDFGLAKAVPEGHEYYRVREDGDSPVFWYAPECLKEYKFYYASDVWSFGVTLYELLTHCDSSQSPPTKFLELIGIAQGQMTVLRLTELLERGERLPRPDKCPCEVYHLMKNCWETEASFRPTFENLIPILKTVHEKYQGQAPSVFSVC
Description: as §1, §2

Compound | pIC50 [1] | pKd (JAK2) | pKd (JAK3) | pKd (Tyk2)
Cc1cc(Nc2nc(C(F)(F)c3ccc(F)cn3)nc3c(S(C)(=O)=O)cccc23)n[nH]1 [Example 37, 2-(difluoro(5-fluoropyridin-2-yl)methyl)-N-(5-methyl-1H-pyrazol-3-yl)-8-(methylsulfonyl)quinazolin-4-amine] | 6.30 to 7.00 | 8.00 to 9.00 | 7.00 to 8.00 | ≥ 8.00
Cc1cnc(Nc2nc(C(F)(F)c3ccc(F)cn3)nc3ccccc23)s1 [Example 30, N-(2-(difluoro(5-fluoropyridin-2-yl)methyl)quinazolin-4-yl)-5-methylthiazol-2-amine] | 6.30 to 7.00 | 8.00 to 9.00 | < 7.00 | 7.00 to 8.00
COc1cc(Nc2nc(C(F)(F)c3ccc(F)cn3)nc3ccccc23)n[nH]1 [Example 5, 2-(difluoro(5-fluoropyridin-2-yl)methyl)-N-(5-methoxy-1H-pyrazol-3-yl)quinazolin-4-amine] | 6.30 to 7.00 | ≥ 9.00 | 7.00 to 8.00 | ≥ 8.00
Cc1cc(Nc2nc(C(F)(F)c3ccc(F)cn3)nc3c(Br)cccc23)n[nH]1 [Example 11, 8-bromo-2-(difluoro(5-fluoropyridin-2-yl)methyl)-N-(5-methyl-1H-pyrazol-3-yl)quinazolin-4-amine] | 6.30 to 7.00 | ≥ 9.00 | 7.00 to 8.00 | ≥ 8.00
CCc1cccc2c(Nc3cc(C)[nH]n3)nc(C(F)(F)c3ccc(F)cn3)nc12 [Example 36, 2-(difluoro(5-fluoropyridin-2-yl)methyl)-8-ethyl-N-(5-methyl-1H-pyrazol-3-yl)quinazolin-4-amine] | 6.30 to 7.00 | ≥ 9.00 | 7.00 to 8.00 | ≥ 8.00
Cc1cc(Nc2nc(C(F)(F)c3ccc(F)cn3)nc3cc(C(N)=O)ccc23)n[nH]1 [Example 41, 2-(difluoro(5-fluoropyridin-2-yl)methyl)-4-((5-methyl-1H-pyrazol-3-yl)amino)quinazoline-7-carboxamide] | < 6.30 | ≥ 9.00 | ≥ 8.00 | ≥ 8.00
Cc1cc(Nc2nc(C(F)(F)c3ccc(F)cn3)nc3c(OC(F)(F)F)cccc23)n[nH]1 [Example 34, 2-(difluoro(5-fluoropyridin-2-yl)methyl)-N-(5-methyl-1H-pyrazol-3-yl)-8-(trifluoromethoxy)quinazolin-4-amine] | 6.30 to 7.00 | 8.00 to 9.00 | 7.00 to 8.00 | ≥ 8.00
Cc1cc(Nc2nc(C(F)(F)c3ccc(F)cn3)nc3c([N+](=O)[O-])cccc23)n[nH]1 [Example 49, 2-(difluoro(5-fluoropyridin-2-yl)methyl)-N-(5-methyl-1H-pyrazol-3-yl)-8-nitroquinazolin-4-amine] | 6.30 to 7.00 | 8.00 to 9.00 | 7.00 to 8.00 | 7.00 to 8.00
Cc1cc(Nc2nc(C(=O)c3ccc(F)cn3)nc3ccccc23)n[nH]1 [Example 1, (5-fluoropyridin-2-yl)(4-(5-methyl-1H-pyrazol-3-ylamino)quinazolin-2-yl)methanone] | ≥ 7.00 | 8.00 to 9.00 | 7.00 to 8.00 | ≥ 8.00
Cc1cc(Nc2nc(C(F)(F)c3ccc(F)cn3)nc3c(N)cccc23)n[nH]1 [Example 50, 2-(difluoro(5-fluoropyridin-2-yl)methyl)-N4-(5-methyl-1H-pyrazol-3-yl)quinazoline-4,8-diamine] | ≥ 7.00 | ≥ 9.00 | ≥ 8.00 | ≥ 8.00
CC(=O)Nc1cccc2c(Nc3cc(C)[nH]n3)nc(C(F)(F)c3ccc(F)cn3)nc12 [Example 48, N-(2-(difluoro(5-fluoropyridin-2-yl)methyl)-4-((5-methyl-1H-pyrazol-3-yl)amino)quinazolin-8-yl)acetamide] | ≥ 7.00 | ≥ 9.00 | ≥ 8.00 | ≥ 8.00

The remaining lines, values ahead:

pIC50 [1] | pKd (JAK2) | pKd (JAK3) | pKd (Tyk2) | Compound
≥ 7.00 | ≥ 9.00 | ≥ 8.00 | ≥ 8.00 | Cc1cc(Nc2nc(C(F)(F)c3ccc(F)cn3)nc3c(C(N)=O)cccc23)n[nH]1 [Example 39, 2-(difluoro(5-fluoropyridin-2-yl)methyl)-4-((5-methyl-1H-pyrazol-3-yl)amino)quinazoline-8-carboxamide]
≥ 7.00 | ≥ 9.00 | ≥ 8.00 | ≥ 8.00 | Cc1cc(Nc2nc(C(F)(F)c3ccc(F)cn3)nc3ccccc23)n[nH]1 [Example 2, 2-(difluoro(5-fluoropyridin-2-yl)methyl)-N-(5-methyl-1H-pyrazol-3-yl)quinazolin-4-amine]
≥ 7.00 | ≥ 9.00 | ≥ 8.00 | ≥ 8.00 | COc1ccc2c(Nc3cc(C)[nH]n3)nc(C(F)(F)c3ccc(F)cn3)nc2c1 [Example 6, 2-(difluoro(5-fluoropyridin-2-yl)methyl)-7-methoxy-N-(5-methyl-1H-pyrazol-3-yl)quinazolin-4-amine]
≥ 7.00 | ≥ 9.00 | ≥ 8.00 | ≥ 8.00 | Cc1cc(Nc2nc(C(F)(F)c3ccc(F)cn3)nc3c(Cl)cccc23)n[nH]1 [Example 13, 8-chloro-2-(difluoro(5-fluoropyridin-2-yl)methyl)-N-(5-methyl-1H-pyrazol-3-yl)quinazolin-4-amine]
≥ 7.00 | ≥ 9.00 | 7.00 to 8.00 | ≥ 8.00 | Cc1cc(Nc2nc(C(F)(F)c3ncc(F)cn3)nc3ccccc23)n[nH]1 [Example 3, 2-(difluoro(5-fluoropyrimidin-2-yl)methyl)-N-(5-methyl-1H-pyrazol-3-yl)quinazolin-4-amine]
≥ 7.00 | ≥ 9.00 | ≥ 8.00 | ≥ 8.00 | Cc1ccc2c(Nc3cc(C)[nH]n3)nc(C(F)(F)c3ccc(F)cn3)nc2c1 [Example 14, 2-(difluoro(5-fluoropyridin-2-yl)methyl)-7-methyl-N-(5-methyl-1H-pyrazol-3-yl)quinazolin-4-amine]
